How the values were obtained:
[1] = target: T1, angiotensin II receptor subtype 2 (AT2) (Bos taurus, UniProt G5E6F7); assay: Binding to angiotensin II receptor subtype 2 (AT2); set-up: species or system bovine (cerebellar cortex); conditions: 125I-Tyr4-angiotensin II tracer, 37° C., 1 hour
T1 construct: from cerebellar cortex in bovine; from tissue; host or cells: bovine cerebellar cortex
T1 sequence (G5E6F7 1-362): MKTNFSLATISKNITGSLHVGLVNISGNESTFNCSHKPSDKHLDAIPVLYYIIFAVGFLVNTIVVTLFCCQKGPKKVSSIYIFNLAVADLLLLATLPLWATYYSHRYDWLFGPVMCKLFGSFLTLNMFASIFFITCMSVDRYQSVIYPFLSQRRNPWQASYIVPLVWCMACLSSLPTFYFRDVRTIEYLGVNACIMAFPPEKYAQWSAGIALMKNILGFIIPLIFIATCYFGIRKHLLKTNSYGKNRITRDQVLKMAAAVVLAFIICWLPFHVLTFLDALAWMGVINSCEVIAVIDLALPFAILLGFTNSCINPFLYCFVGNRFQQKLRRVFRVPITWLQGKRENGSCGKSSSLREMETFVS
Protocol: (§1) In this Example, the affinity to the angiotensin II receptor subtype 1 or subtype 2 was evaluated by a binding assay in accordance with the method described in Biochem. Pharmacol., 33, 4057-4062 (1984).
(§2) Specifically, the measurement of the total binding in the presence of each drug was performed as follows:
(§3) A mixture (final volume=0.25 ml) of a drug in a given concentration (the drug was dissolved in DMSO, and diluted to a double volume with a buffer attached to a drug discovery system to prepare sample for the assay; 0,025 ml), a tracer (0.025 ml), and receptors (0.2 ml) was incubated [in the case of the angiotensin II receptor subtype 1 (AT1), at room temperature for 3 hours, and in the case of the subtype 2 (AT2), at 37° C. for 1 hour]. Then, the reaction mixture was filtered with suction (GF/C filter was used in AT1, and GF/B filter was used in AT2). The filter papers after filtration with suction (the tracer bound to the receptors) were counted by a γ-well counter (ARC-500, Aloka). The non-specific bindings were measured by repeating the above method, except that a large excess amount of a displacer was added. The specific binding of the drug in the given concentration was calculated by subtracting the non-specific binding from the total binding, respectively.
(§4) In AT1 and AT2, the percentages to inhibit the bindings of radioactive ligands (tracer) to receptors by the drugs to be tested (IC50 value of concentration to show 50% inhibition, or binding inhibition % in 100 μM) were measured, using the drugs to be tested and control drugs in the given concentration.
from cerebellar cortex in bovine
tracer: ^125 I-Tyr^4 -angiotensin II

[2] = test system: kidney disease model rats; assay: Action to depress blood pressure in kidney disease model rats (tail cuff); type: in vivo, Sprague-Dawley female rats; conditions: 20 mg/kg per os; after two days; control 210 mmHg
Protocol: (§5) The compounds of the present invention and the reference substance were forcedly administered per os to kidney disease model rats, and the action to depress blood pressure was observed. The kidney disease model rats were prepared by ligature of branches of renal artery in accordance with the conventional method, that is, the left hilum renalis of Sprague-Dawley female rats was exposed under anesthesia, and one of four secondary branches of renal artery was left unligated, while the remaining three branches were ligated, respectively. After a week, the hilum renalis (artery, vein, and ureter) of the right kidney were further ligated to thereby prepare the rats whose renal function was lowered to approximately 1/8 of the normal function. Each group consisted of eight rats. The drugs to be tested (20 mg/kg) were administered to each administering group, and only water was administered to control group. After two days from the administration, the systolic blood pressure was measured by the tail cuff method using a blood pressure measuring apparatus (UR5000; Ueda).

[3] = test system: kidney disease model rats; assay: Action to survival time of kidney diseased animals; type: in vivo, Sprague-Dawley female rats; conditions: 20 mg/kg/day per os; observation eight weeks (upper limit); control 5.0
Protocol: as §5
The kidney disease model rats were prepared as in Example 21. Fifteen groups (8 rats per group) were prepared in a manner so that there was no major difference between the groups in the serum creatinine value and the urea nitrogen value indicating renal function. The rats in each group were allowed to freely take up feed and water. […] To the rats in the control group, only water was forcedly administered per os every day. If kidney diseases are aggravated, the rat will die of uremia. Thus, the survival time was observed as comprehensive indication of the improvement effect on the kidney diseases. The observation period was eight weeks. Thus if all rats survived, the average survival time is eight weeks and it is an upper limit.

[4] = test system: kidney disease model rats; assay: Renal function indicatory value (action to kidney diseases); type: in vivo, Sprague-Dawley female rats; conditions: 20 mg/kg/day per os, two weeks; for Creatinine clearance (CCr): control 0.20; for Creatinine (serum, Scr): control 2.0; for Urea nitrogen (BUN): control 100
Protocol: The kidney disease model rats were prepared by ligature of branches of renal artery in accordance with the conventional method, that is, the left hilum renalis of Sprague-Dawley female rats was exposed under anesthesia, and one of four secondary branches of renal artery was left unligated, while the remaining three branches were ligated, respectively. […] Each group consisted of eight rats. The drugs to be tested (20 mg/kg) were administered to each administering group, and only water was administered to control group. After two days from the administration, the systolic blood pressure was measured by the tail cuff method using a blood pressure measuring apparatus (UR5000; Ueda).
The kidney disease model rats were prepared as in Example 21. Fifteen groups (8 rats per group) were sleeked in a manner so that there were no major differences between each group in the serum creatinine value and the urea nitrogen value indicating renal function. The rats in each group were allowed to freely take up feed and water. […] To the rats in the control group, only water was forcedly administered per os every day. After two weeks, 0.2 ml of blood was collected from the carotid artery of the rat under anesthesia, and centrifuged to obtain serum. Using 25 μl of the serum, serum creatinine (Scr) was measured by a creatinine analytical instrument (Beckman). Using 10 μl of the serum, urea nitrogen (BUN) was measured by a BUN analytical instrument (Beckman). Creatinine clearance was evaluated as follows:
After serum creatinine measurement, rats were placed in urinary metabolic cages for 24 hours to collect urine. Urinary creatine concentration (Ucr) was measured by a creatinine analytical instrument, and total volume of urination (Uvol) was also measured. Creatinine clearance (CCr) was calculated by the following formula: [formula]

[5] = target: T2, angiotensin II receptor subtype 1 (AT1) (Oryctolagus cuniculus, UniProt P34976); assay: Binding to angiotensin II receptor subtype 1 (AT1); set-up: species or system rabbits (adrenal glands); conditions: 3H-angiotensin II tracer; for IC50: room temperature, 3 hours
T2 construct: from adrenal glands in rabbits; from tissue; host or cells: rabbit adrenal glands
T2 sequence (P34976 1-359): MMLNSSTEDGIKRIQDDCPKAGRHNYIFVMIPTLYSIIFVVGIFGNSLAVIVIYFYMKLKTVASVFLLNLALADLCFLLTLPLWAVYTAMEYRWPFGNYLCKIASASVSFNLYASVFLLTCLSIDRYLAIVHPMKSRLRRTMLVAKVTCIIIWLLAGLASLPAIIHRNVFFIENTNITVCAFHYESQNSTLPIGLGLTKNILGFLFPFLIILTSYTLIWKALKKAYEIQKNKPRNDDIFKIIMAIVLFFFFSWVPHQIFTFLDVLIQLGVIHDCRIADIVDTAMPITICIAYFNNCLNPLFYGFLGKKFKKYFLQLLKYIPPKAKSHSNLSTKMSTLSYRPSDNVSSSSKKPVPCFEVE
Protocol: as §1, §2, §3, §4

In the case of CCCCC(=O)Nc1c(NCc2ccccc2)ncnc1NCc1ccc(C(=O)O)cc1 [Compound No. 7, 4-[[(6-benzylamino-5-valeramido)pyrimidin-4-yl]aminomethyl]benzoic acid], the inhibition at 100 µM [1] is reported as 0%, the “Blood pressure (average systolic)” value [2] is reported as 208 mmHg and the Average survival time [3] is reported as 7.0 weeks. For the same compound, the “Creatinine clearance (CCr)” value [4] was 0.33 mL/min, the “Creatinine (serum, Scr)” value [4] was 1.6 mg/dL and the “Urea nitrogen (BUN)” value [4] was 80 mg/dL. It also gave an inhibition at 100 µM [5] of 1%.
CCCCC(=O)Nc1c(NCCc2ccccc2)ncnc1NCc1ccc(C(=O)O)cc1 [Compound No. 8, 4-[[(6-phenethylamino-5-valeramido)pyrimidin-4-yl]aminomethyl]benzoic acid] was tested, and the inhibition at 100 µM [1] was 0%, the “Blood pressure (average systolic)” value [2] was 203 mmHg and the Average survival time [3] was 7.1 weeks. The “Creatinine clearance (CCr)” value [4] was 0.33 mL/min, the “Creatinine (serum, Scr)” value [4] was 1.6 mg/dL and the “Urea nitrogen (BUN)” value [4] was 79 mg/dL. For the same compound, the inhibition at 100 µM [5] was 0%.
For CCCCC(=O)Nc1c(NCCCc2ccccc2)ncnc1NCc1ccc(C(=O)O)cc1 [Compound No. 9, 4-[[(6-phenylpropylamino-5-valeramido)pyrimidin-4-yl]aminomethyl]benzoic acid], the inhibition at 100 µM [1] was 0%, the “Blood pressure (average systolic)” value [2] was 204 mmHg and the Average survival time [3] was 6.9 weeks. The “Creatinine clearance (CCr)” value [4] was 0.31 mL/min, the “Creatinine (serum, Scr)” value [4] was 1.6 mg/dL and the “Urea nitrogen (BUN)” value [4] was 80 mg/dL. It also gave an inhibition at 100 µM [5] of 6%.
For CCCCC(=O)Nc1c(NCc2ccc(OC)cc2)ncnc1NCc1ccc(C(=O)O)cc1 [Compound No. 10], the inhibition at 100 µM [1] was 0%, the “Blood pressure (average systolic)” value [2] was 208 mmHg and the Average survival time [3] was 7.0 weeks. For the same compound, the “Creatinine clearance (CCr)” value [4] was 0.33 mL/min, the “Creatinine (serum, Scr)” value [4] was 1.6 mg/dL and the “Urea nitrogen (BUN)” value [4] was 81 mg/dL. It also gave an inhibition at 100 µM [5] of 6%.
For CCCCC(=O)Nc1c(NCc2ccc(C(=O)O)cc2)ncnc1OCc1ccccc1 [Compound No. 11, 4-[[(6-benzyoloxy-5-valermido)pyrimidin-4-yl]aminomethyl]benzoic acid], the “Blood pressure (average systolic)” value [2] was 202 mmHg, the Average survival time [3] was 7.5 weeks and the “Creatinine clearance (CCr)” value [4] was 0.35 mL/min. The “Creatinine (serum, Scr)” value [4] was 1.6 mg/dL, the “Urea nitrogen (BUN)” value [4] was 78 mg/dL and the IC50 [5] was 15 µM.
For CCCCC(=O)Nc1c(Cl)ncnc1NCc1ccc(OC)cc1 [Compound No. 48, 4-[[(6-Chloro-5-Valeramido)pyrimidin-4-yl]aminomethyl]anisole], the inhibition at 100 µM [1] was 0%, the “Blood pressure (average systolic)” value [2] was 207 mmHg and the Average survival time [3] was 6.9 weeks. The “Creatinine clearance (CCr)” value [4] was 0.30 mL/min, the “Creatinine (serum, Scr)” value [4] was 1.7 mg/dL and the “Urea nitrogen (BUN)” value [4] was 83 mg/dL. The inhibition at 100 µM [5] was 0%.
In the case of CCCCC(=O)Nc1c(NCc2ccc(C(=O)O)cc2)ncnc1N(C)Cc1ccccc1 [Compound No. 61, 4-[[(6-N-benzylmethylamino-5-valeramido)pyrimidin-4-yl]aminomethyl]benzoic acid], the inhibition at 100 µM [1] is reported as 0%, the “Blood pressure (average systolic)” value [2] is reported as 205 mmHg and the Average survival time [3] is reported as 6.9 weeks. For the same compound, the “Creatinine clearance (CCr)” value [4] was 0.32 mL/min, the “Creatinine (serum, Scr)” value [4] was 1.6 mg/dL and the “Urea nitrogen (BUN)” value [4] was 81 mg/dL. It also gave an inhibition at 100 µM [5] of 42%.
In the case of CCCCC(=O)Nc1c(NCc2ccccc2)ncnc1NCc1ccc(OC)cc1 [Compound No. 89, 4-[[(6-benzylamino-5-valeramido)pyrimidin-4-yl]aminomethyl]anisole], the inhibition at 100 µM [1] is reported as 0%, the “Blood pressure (average systolic)” value [2] is reported as 204 mmHg and the Average survival time [3] is reported as 7.0 weeks. The “Creatinine clearance (CCr)” value [4] was 0.33 mL/min, the “Creatinine (serum, Scr)” value [4] was 1.6 mg/dL and the “Urea nitrogen (BUN)” value [4] was 80 mg/dL. For the same compound, the inhibition at 100 µM [5] was 11%.
In the case of CCCCC(=O)Nc1c(NCc2ccc(C(=O)O)cc2)ncnc1OC [compound 2, 4-[[(6-methoxy-5-valeramido)pyrimidin-4-yl]aminomethyl]benzoic acid], the inhibition at 100 µM [1] is reported as 0%, the “Blood pressure (average systolic)” value [2] is reported as 201 mmHg and the Average survival time [3] is reported as 7.5 weeks. For the same compound, the “Creatinine clearance (CCr)” value [4] was 0.35 mL/min, the “Creatinine (serum, Scr)” value [4] was 1.6 mg/dL and the “Urea nitrogen (BUN)” value [4] was 78 mg/dL. For the same compound, the IC50 [5] was 28 µM.
